Experimental data published in patent publication US20080102275A1, “Method For Coating Powders” (priority 2004, published 2008).

What was measured:
[1] = release/dissolution test of pseudoephedrine particles in distilled water, quantitative determination by UV spectrophotometry; assay type: physicochemical; conditions: ambient temperature, FIG. 18
[2] = release/dissolution test of BSA particles in distilled water, quantitative determination by UV spectrophotometry; assay type: physicochemical; conditions: ambient temperature, FIG. 19
Method: This time, a heat-sensitive protein, BSA (Bovine Serum Albumin), the mean diameter of which, measured by particle size determination, is 85.6 μm, is coated according to FIG. 2 of the process according to the present invention. 3 g of BSA are placed in the system for injection by CO2 and 3 g of Precirol® are placed in the autoclave. The supercritical medium conditions are 110 bar and 50° C. for a dissolution time of 30 minutes. The pressure for injection of the BSA particles is 80 bar. Once coinjection has been carried out, the coated particles are quantitatively determined by UV spectrophotometry (FIG. 19). While the crude BSA is completely dissolved in distilled water at ambient temperature after 5 minutes, the protein coated with Precirol® (BSA 1 test) for its part takes close to 30 minutes in order to be completely dissolved in distilled water at ambient temperature.

Molecule | time to complete dissolution [1] [min] | time to complete dissolution [2] [min]
CN[C@@H](C)[C@@H](O)c1ccccc1 [crude pseudoephedrine, pseudoephedrine] | 10 | 
crude BSA: heat-sensitive protein, BSA (Bovine Serum Albumin), uncoated |  | 5
